22 molecules from PMC2206373, “Identification of an altered peptide ligand based on the endogenously presented, rheumatoid arthritis-associated, human cartilage glycoprotein-39(263–275) epitope: an MHC anchor variant peptide for immune modulation” (Arthritis Research & Therapy, 2007) can be followed below.

One assay has as its target HLA-DR4(B1*0401) (Homo sapiens, UniProt P01903+P01911, A100K/A169T/F76Y/I96L/K127E/L162R/M171V/N62H/P40V/Q125Y/R42H/S133A/S149N/S66Y/V115G/V209L/W38E). Nature of the assay: HLA-DR4 competition peptide binding assay. The note with it: competition with biotinylated HA307-319 (Y309F) 50 nM, purified HLA-DR4 30 nM, pH 5, 48 h, room temperature. As to the method: HLA-DR bound marker peptide was separated from free marker peptide and the amount of bound marker peptide was detected and quantified by enhanced chemoluminescense. Inhibition curves were generated and the IC50 was determined. The concentration of competitor peptide inducing 50% inhibition of marker peptide binding was determined, and expressed as the 50% inhibitory concentration (IC50 in μM).

For a further assay, the system named is T cell hybridoma 14G11. In words: T hybridoma 14G11 IL-2 response. In kind it is cell-based, mouse. The following applies: Figure 1; IL-2 production, DRB1*0401 BLCL as APC; duplicate or triplicate; background 7,152 counts; ±30% of WT response = super/partial agonist. As to the method: (§1) The T cell hybridomas, provided by G Sonderstrup (Stanford, CA, USA), were generated as described. In brief, human CD4, HLA-DRA*101/HLA-DRB*0401 triple transgenic (HLA-DR4trg) mice (devoid of I-Aβ) were immunized in the footpad with 50 μg of purified HC gp-39 mixed in incomplete Freund's adjuvant (IFA). Draining lymph nodes were isolated and T-cell hybridomas were generated by polyethylene glycol fusion of primed and in vitro antigen-restimulated lymph node cells with the AKR BW5147 fusion partner. Following fusion, growth-positive hybridoma wells were screened for reactivity to HC gp-39 and a set of 55 peptides (16 amino acids in length) covering the entire HC gp-39 sequence. HLA-DR4(B1*0401)-restricted hybridomas responsive to both the HC gp-39 protein and the immunodominant epitope 263–275 of HC gp-39 (for example, 5G11, 8B12, 14G11 and 20H5) were cloned, subcloned, characterised and selected for further study.
(§2) HC gp-39-specific IL-2 production by T hybridomas was measured in wells of round-bottomed microtiter plates. Hybridoma cells (2 to 5 × 10^4) and irradiated APC (0.5 to 1 × 10^5; 12,000 to 16,000 RAD) from the B lymphoblastoid cell line (BLCL) carrying the DRB1*0401 specificity were incubated in 150 μl volumes. Antigen was added in 50 μl volumes to duplicate wells. After 48 h, 100 μl of the culture supernatant was assayed for IL-2 production using a sandwich ELISA with Pharmingen antibodies specific for mouse IL-2. The antigen sensitivity of the hybridomas to both peptide and protein was determined (Figure 2). […] In later assays, an excess of peptide or APL (10 μg/ml), inducing maximal responses in all hybridomas, was tested.

For the next assay, the system named is T cell hybridoma 8B12. In words: T hybridoma 8B12 IL-2 response. In kind it is cell-based, mouse. The following applies: Figure 1; IL-2 production, DRB1*0401 BLCL as APC; duplicate or triplicate; background 16,288 counts; ±30% of WT response = super/partial agonist. The protocol:
as §1, §2

The test system of a further assay is T cell hybridoma 5G11. In words: T hybridoma 5G11 IL-2 response. In kind it is cell-based, mouse. The note with it: Figure 1; IL-2 production, DRB1*0401 BLCL as APC; duplicate or triplicate; background 29,203 counts; ±30% of WT response = super/partial agonist. The protocol: as §1, §2
The mark [1] stands for this setting: Table 2, read-out: HLA-DR binding IC50.
Where [2] appears, read: Table 1, geometric mean of two experiments, read-out: HLA-DR binding IC50.
Where [3] appears, read: Figure 1, read-out: DRB1*0401 binding IC50.

Where two headings read alike, the source gives them in different places. Non-standard residues stand in square brackets, D forms with d. Residues, ends and D or L forms follow the SMILES beside them. No end group written: not given here. Phe(4-NO2) = N[C@@H](Cc1ccc([N+](=O)[O-])cc1)C(=O)O; Phe(4-Cl) = N[C@@H](Cc1ccc(Cl)cc1)C(=O)O; Phe(4-I) = N[C@@H](Cc1ccc(I)cc1)C(=O)O; hPhe = N[C@@H](CCc1ccccc1)C(=O)O; 2Thi = N[C@@H](Cc1cccs1)C(=O)O

Usually IC50 stands for the concentration needed to halve the response being measured. As to RSFTLASSETGVA [Compound 22], the half-maximal inhibitory concentration (IC50) on HLA-DR4(B1*0401) (setting [1]) was 0.05 µM. Same read-out and setting: the same measure for RSFTLASAETGVG [Compound 17]: 0.05 µM. Regarding RSFTLASSETG [Compound 3], the IC50 on HLA-DR4(B1*0401) (setting [2]) was found to be 0.2 µM.

RSFTLASSETGV [Compound 2]: at HLA-DR4(B1*0401) (setting [2]), the 50% inhibitory concentration (IC50) came out at 0.09 µM. With RSFALASSETGVG [Compound 13], at HLA-DR4(B1*0401) (setting [1]), the IC50 worked out at 0.06 µM.

Take `CC(C)C[C@H](NC(=O)[C@@H](NC(=O)[C@H](Cc1cccs1)NC(=O)[C@H](CO)NC(=O)[C@@H](N)CCCNC(=N)N)[C@@H](C)O)C(=O)N[C@@H](C)C(=O)N[C@@H](CO)C(=O)N[C@@H](CO)C(=O)N[C@@H](CCC(=O)O)C(=O)N[C@H](C(=O)NCC(=O)N[C@H](C(=O)NCC(=O)O)C(C)C)[C@@H](C)O` [Compound 26] (H-RS[2Thi]TLASSETGVG-OH): at HLA-DR4(B1*0401) (setting [3]), the concentration for half-maximal inhibition (IC50) is 0.009 µM. Besides, the “T hybridoma (SI) 14G11” value with T cell hybridoma 14G11 is listed as 31 SI. Besides, the “T hybridoma (SI) 8B12” value with T cell hybridoma 8B12 is 18 SI. Also, in the assay with T cell hybridoma 5G11, the “T hybridoma (SI) 5G11” value came out at 23 SI.

For `CC(C)C[C@H](NC(=O)[C@@H](NC(=O)[C@H](Cc1ccc([N+](=O)[O-])cc1)NC(=O)[C@H](CO)NC(=O)[C@@H](N)CCCNC(=N)N)[C@@H](C)O)C(=O)N[C@@H](C)C(=O)N[C@@H](CO)C(=O)N[C@@H](CO)C(=O)N[C@@H](CCC(=O)O)C(=O)N[C@H](C(=O)NCC(=O)N[C@H](C(=O)NCC(=O)O)C(C)C)[C@@H](C)O` [Compound 34] (H-RS[Phe(4-NO2)]TLASSETGVG-OH), the IC50 on HLA-DR4(B1*0401) (setting [3]) was determined as 0.013 µM. In the assay on T cell hybridoma 14G11, the “T hybridoma (SI) 14G11” value is recorded as 33 SI. Also, in the assay on T cell hybridoma 8B12, the “T hybridoma (SI) 8B12” value turned out to be 20 SI. Besides, in the assay on T cell hybridoma 5G11, the “T hybridoma (SI) 5G11” value is 32 SI. For the molecule `CC(C)C[C@H](NC(=O)[C@@H](NC(=O)[C@H](Cc1ccc(Cl)cc1)NC(=O)[C@H](CO)NC(=O)[C@@H](N)CCCNC(=N)N)[C@@H](C)O)C(=O)N[C@@H](C)C(=O)N[C@@H](CO)C(=O)N[C@@H](CO)C(=O)N[C@@H](CCC(=O)O)C(=O)N[C@H](C(=O)NCC(=O)N[C@H](C(=O)NCC(=O)O)C(C)C)[C@@H](C)O` [Compound 31] (H-RS[Phe(4-Cl)]TLASSETGVG-OH), the IC50 on HLA-DR4(B1*0401) (setting [3]) was 0.009 µM. Besides, the “T hybridoma (SI) 14G11” value in the assay on T cell hybridoma 14G11 is 29 SI. Moreover, in the assay with T cell hybridoma 8B12, the “T hybridoma (SI) 8B12” value worked out at 14 SI. Also, the “T hybridoma (SI) 5G11” value in the assay with T cell hybridoma 5G11 is reported as 32 SI. For SFTLASSETGV [Compound 9], the IC50 at HLA-DR4(B1*0401) (setting [2]) stood at 0.12 µM.

Regarding RSFTLASSEAGVG [Compound 19], at HLA-DR4(B1*0401) (setting [1]), the IC50 was determined as 0.04 µM.

On to RSFTLASSETAVG [Compound 20], for which, at HLA-DR4(B1*0401) (setting [1]), the IC50 amounted to 0.05 µM. Still for that read-out and setting: the same measure for RSFTAASSETGVG [Compound 14]: 0.08 µM; for RSFTLAASETGVG [Compound 16]: 0.05 µM. In the case of SFTLASSETGVG [Compound 5], the IC50 at HLA-DR4(B1*0401) (setting [2]) is 0.09 µM. Take FTLASSETGVG [Compound 6]: the IC50 on HLA-DR4(B1*0401) (setting [2]) was 0.11 µM. `CC(C)C[C@H](NC(=O)[C@@H](NC(=O)[C@H](CCc1ccccc1)NC(=O)[C@H](CO)NC(=O)[C@@H](N)CCCNC(=N)N)[C@@H](C)O)C(=O)N[C@@H](C)C(=O)N[C@@H](CO)C(=O)N[C@@H](CO)C(=O)N[C@@H](CCC(=O)O)C(=O)N[C@H](C(=O)NCC(=O)N[C@H](C(=O)NCC(=O)O)C(C)C)[C@@H](C)O` [Compound 24] (H-RS[hPhe]TLASSETGVG-OH): the half-inhibitory concentration (IC50) on HLA-DR4(B1*0401) (setting [3]) came to 0.015 µM. Turning to RSFTLASSET [Compound 4], the concentration for half-maximal inhibition (IC50) at HLA-DR4(B1*0401) (setting [2]) turned out to be 7 µM. Take RSFTLASSATGVG [Compound 18]: the IC50 at HLA-DR4(B1*0401) (setting [1]) amounted to 0.04 µM. As for RSFTLASSETGAG [Compound 21], the IC50 at HLA-DR4(B1*0401) (setting [1]) stood at 0.06 µM. On the same count and under the same terms, with RAFTLASSETGVG [Compound 11] the figure was 0.1 µM.

For the molecule `CC(C)C[C@H](NC(=O)[C@@H](NC(=O)[C@H](Cc1ccc(I)cc1)NC(=O)[C@H](CO)NC(=O)[C@@H](N)CCCNC(=N)N)[C@@H](C)O)C(=O)N[C@@H](C)C(=O)N[C@@H](CO)C(=O)N[C@@H](CO)C(=O)N[C@@H](CCC(=O)O)C(=O)N[C@H](C(=O)NCC(=O)N[C@H](C(=O)NCC(=O)O)C(C)C)[C@@H](C)O` [Compound 33] (H-RS[Phe(4-I)]TLASSETGVG-OH), the half-maximal inhibitory concentration (IC50) on HLA-DR4(B1*0401) (setting [3]) was less than 0.009 µM. Moreover, the “T hybridoma (SI) 5G11” value in the assay on T cell hybridoma 5G11 is 26 SI. As for ASFTLASSETGVG [Compound 10], the half-maximal inhibitory concentration (IC50) at HLA-DR4(B1*0401) (setting [1]) was 0.1 µM.
